pIC50: −log10 of the molar value.
Tests used:
HUVEC = type: cell-based, human
From the text: The cellular mechanisms of angiogenesis involve motility and alignment of ECs to form a capillary tube-like network on matrigel. Thus, we assessed whether or not apoEdp impaired EC differentiation in the tube formation assay as described in the Materials and Methods. The numbers of tubular structures (Fig. 3A) were quantitatively analyzed. […] “Percentage (%) of inhibition” in Fig. 3C is the mean number (± SEM) of tubules expressed as a proportion of that in the VEGF control group. ** p<0.01 and *** p<0.001.
Figure 3 ApoEdp inhibited capillary tubule formation (in vitro angiogenesis). […] Tubular structures were quantitated by manual counting under low power fields. […] (C) “Percentage (%) of inhibition” is the mean number (± SEM) of tubules expressed as a proportion of that in the VEGF control group. ** p<0.01 and *** p<0.001. […]
Matrigel (Sigma Aldrich, St Louis, MO) was thawed overnight on ice. […] After 12–16 hr, microtubule formation was assessed with an inverted photomicroscope and the images were photographed using Olympus U-RLF-T microscope. Manual counting at low power fields was used to quantitate tubular structures and percentage of inhibition was expressed using VEGF control wells as 100%.

[1] = system: MDA-MB-231 tumor xenografts; experiment: Xenograft tumor growth assay in nude mice; type: in vivo
Method: In order to assess the in vivo effect of apoEdp on tumor growth, we established subcutaneous human breast cancer MDA-MB-231 tumor xenografts in nude mice. Once tumor size became ∼100 mm^3 in approximately 10 days, mice were randomly divided into two groups, and treated with PBS or apoEdp at 40 mg/kg/day for three consecutive days.
Figure 6 ApoEdp inhibits tumor growth in vivo. MDA-MB-231 breast cancer cells were used for anti-tumor studies. A suspension of 3×10^6 cells in 0.1 mL of PBS was injected in the right dorsal flank. Tumors were monitored weekly in two diameters with digital calipers. Tumor volumes were determined using A×B^2×0.52 (where A is the longest and B is the shortest diameter). Tumors were allowed to grow to ∼100 mm^3 and mice were randomized. Single intralesional administration daily of PBS or 40 mg/kg/day of apoEdp for 3 consecutive days was performed and then stopped. Representative photographs of mouse xenograft treated with (A) apoEdp or PBS are shown.
Female nu/nu mice (8–12 weeks old, weighing ∼20 g) were obtained from […] (Harlan, Indianapolis, IN). […] The growth of the tumor xenograft was evaluated by determining the tumor volume using digital calipers every 7 days. Tumor volume was calculated using the relationship A×B^2×0.52, where A is the longest diameter and B the shortest. […]

Substance: Ac-LRKLRKRLLLRKLRKRLL-NH2 [apoEdp]
- pIC50 (HUVEC): 5.05
- Tumor growth in MDA-MB-231 xenograft ([1]; nude (nu/nu) mice, 40 mg/kg/day intralesional for 3 consecutive days, compared to PBS-treated controls): significantly inhibited tumor growth
- Observable toxicity during treatment ([1]; nude mice, 40 mg/kg/day for 3 days, data not shown): no sign of observable toxicity
